Laboratory results from patent US7981896B2 (Athersys, Inc., priority 2006, dated 2011).

Target: T1, human histamine H3 receptor (Homo sapiens, UniProt Q9Y5N1)
T1 construct: endogenous in cells; host or cells: HT1080-Gqαi5 RAGE clone (RAGE-H3), human fibrosarcoma line; integrated RAGE vector pFG8-HH3 supplies exon 1, the cell's own gene supplies the other exons
Experiment: Competition radioligand binding assay with [125I]iodoproxyfan on membranes of RAGE-H3 (HT1080-Gqαi5) cells expressing human H3 receptor
Settings: ~0.15 nM [125I]iodoproxyfan, 1.5 hrs at room temperature, head does not name the quantity (apparent Ki by Cheng-Prussof)
Procedure: Representative compounds of the present invention that were prepared by the procedures of Examples 1-83 were evaluated in binding assays against cells expressing human H3 receptor by the following procedure.
[^125I]iodoproxyfan (2000 Ci/mmol) was obtained from Amersham Bioscience (Piscataway, N.J.). All other chemicals were either from Sigma-Aldrich (St. Louis, Mo.) or Tocris Cookson Inc. (Ellisville, Mo.).
The human histamine H3 receptor was stably expressed in HT1080 cells containing the chimeric G-protein, Gq[…]i5 (Coward et al., Anal Biochem 1999; 270:242-8). HT1080-Gqαi5 cells were grown in alpha-modified MEM containing 10% fetal bovine serum and 7 μg/ml blasticidin at 37° C. in 5% CO2/95% atmosphere. Cells (4.8×10^9) were irradiated with 50 rads from a ^137Cs source and the pFG8-HH3 RAGE (Random Activation of Gene Expression; see Harrington et al., Nature Biotechnology. 2001; 19:440-45) vector was subsequently integrated into the cells via electroporation (250V, 600 μF, 50Ω). The RAGE vector pFG8-HH3 contained cDNA sequence coding for the first exon (83 amino acids) of human H3 receptor. After electroporation, cells were plated in T75 flasks and grown in alpha-modified MEM. The culture medium was replaced 48 hrs after electroporation with alpha-modified MEM, 10% fetal bovine serum, 500 μg/ml hygromycin B and 3 μg/ml puromycin. Medium was replaced every four days during cell expansion. To identify RAGE activated cells expressing the H3 receptor, pools of approximately 10,000 colonies (5×10^7-1.5×10^8 cells total) were screened by PCR for the desired gene product (using primers specific to the RAGE vector and exon 2 of the H3 receptor). […] Positive 100 cells/well pools were identified by PCR, confirmed by sequencing, and subsequently subcloned to 0.8 cells/well. Once clones expressing the H3 receptor were identified by PCR analysis, assays (FLIPR or radioligand binding) were performed to confirm that the activated gene produced functional protein. The protein expression in the initial clones obtained from the RAGE library was increased by growth in the presence of methotrexate. Since the integrated RAGE vector contains the DHFR gene, such treatment selects for cells that have amplified the genetic locus containing the RAGE insert. Subclones obtained after methotrexate amplification were tested for functional activity in FLIPR assays to identify the clone that was most suitable for HTS. The final HT1080-Gqαi5 RAGE clone (RAGE-H3) expressing the human histamine H3 receptor was grown in alpha-modified MEM containing 10% fetal bovine serum, 3 μg/ml puromycin, 500 μg/ml hygromycin B, 3.2 μM methotrexate at 37° C. in 5% CO2/95% atmosphere.
RAGE-H3 cells (10^9) were washed twice with cold PBS, scraped off the plates, and centrifuged at 1000×g for 5 minutes. Cells were resuspended in ice-cold 10 mM Tris HCl, pH 7.4, containing 5 mM EDTA and protease inhibitor cocktail tablets (Roche Molecular Biochemicals). After incubating on ice for 10 min, the cells were homogenized with a dounce homogenizer or a polytron tissue grinder, and centrifuged at 1000×g for 10 min at 4° C. The resulting supernatant was centrifuged at 32,000×g for 30 min at 4° C. The membrane pellets were resuspended in 50 mM Tris HCl, pH 7.4, and stored at −80° C. until use. Protein concentration was determined by the Bradford method (Bio-Rad Laboratories, CA).
Binding assays were carried out in 96-well polypropylene plates in 50 mM Tris HCl, pH 7.4, containing 1 mM EDTA. Reaction mixtures contained 100 μl of membrane suspension, 50 μl of 4% DMSO, and 50 μl of increasing amounts of [^125I]iodoproxyfan (final concentration 0.0005-1.8 nM for human H3 receptor saturation binding assay). Nonspecific binding was defined by adding 10 μM clobenpropit to the reaction mixtures. […]

T1 sequence (Q9Y5N1 whole entry): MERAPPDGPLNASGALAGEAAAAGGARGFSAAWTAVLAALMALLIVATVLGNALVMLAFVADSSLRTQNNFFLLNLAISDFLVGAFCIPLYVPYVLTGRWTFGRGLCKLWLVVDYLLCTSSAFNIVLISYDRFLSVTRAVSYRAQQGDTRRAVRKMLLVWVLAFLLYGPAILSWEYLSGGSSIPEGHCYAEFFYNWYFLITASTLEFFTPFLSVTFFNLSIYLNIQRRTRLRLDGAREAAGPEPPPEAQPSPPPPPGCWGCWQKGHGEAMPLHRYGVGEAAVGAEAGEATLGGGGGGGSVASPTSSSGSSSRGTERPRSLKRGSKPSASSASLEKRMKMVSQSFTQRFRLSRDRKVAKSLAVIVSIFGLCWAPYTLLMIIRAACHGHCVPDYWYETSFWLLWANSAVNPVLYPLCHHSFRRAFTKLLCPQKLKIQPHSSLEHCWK

Row | SMILES | Ki [µM]
1 | Cc1cc(C(=O)NC2CCCCC2)n(-c2ccc(OCC3CCCN4CCCCC34)cc2)n1 (centres unmarked) [Example 82, 5-Methyl-2-[4-(octahydroquinolizin-1-ylmethoxy)phenyl]-2H-pyrazole-3-carboxylic acid cyclohexylamide] | > 10
2 | Cc1cc(C(=O)NC2CCCCC2)nn1-c1ccc(OCCCN2CCCC2)cc1 [Example 83, 5-Methyl-1-[4-(3-pyrrolidin-1-ylpropoxy)phenyl]-1H-pyrazole-3-carboxylic acid cyclohexylamide] | < 0.01
